Test results taken from patent EP2540163A1, “Nematocide N-cyclopropyl-sulfonylamide derivatives” (Bayer CropScience AG, priority 2011, dated 2013).

Assay: logP by HPLC on reversed-phase column (C 18), EEC Directive 79/831 Annex V.A8, Method B (0.1% aqueous formic acid / acetonitrile, 40°C)
Type: physicochemical
Details: LogP method B: HPLC reversed-phase C 18, 40°C, 0.1% aqueous formic acid / acetonitrile; for chromatographic logP: c18 reversed-phase hplc
Experimental: Calibration was carried out using unbranched alkan-2-ones (having 3 to 16 carbon atoms) with known logP values (determination of the logP values by the retention times using linear interpolation between two successive alkanones).

SMILES	chromatographic logP	LogP
COc1nn(C)c(Cl)c1C(=O)N(C1CC1)S(=O)(=O)c1ccc(Oc2ccc(Br)cc2)cc1 [compound 284]	4.3	–
CCCOc1nn(C)cc1C(=O)N(C1CC1)S(=O)(=O)c1ccc(Oc2ccc(Br)c(Cl)c2)cc1Br [compound 304]	5	–
Cn1nc(C(F)(F)F)c(C(=O)N(C2CC2)S(=O)(=O)c2c(Cl)cccc2Cl)c1F [compound 360]	3.1	–
Cn1nc(C(F)(F)F)c(C(=O)N(C2CC2)S(=O)(=O)c2cc(Cl)c(Cl)cc2Cl)c1F [compound 361]	4	–
Cn1nc(C(F)(F)F)c(C(=O)N(C2CC2)S(=O)(=O)c2ccc(F)cc2Cl)c1F [compound 362]	3.1	–
Cn1nc(C(F)(F)F)c(C(=O)N(C2CC2)S(=O)(=O)c2c(Cl)cc(Cl)cc2Cl)c1F [compound 363]	3.7	–
Cc1cc(Cl)cc(Cl)c1S(=O)(=O)N(C(=O)c1c(C(F)(F)F)nn(C)c1F)C1CC1 [compound 367]	2.6	–
CCc1nn(C)c(F)c1C(=O)N(C1CC1)S(=O)(=O)c1ccc(Cl)c(Cl)c1 [compound 378]	3.8	–
CCc1nn(C)c(F)c1C(=O)N(C1CC1)S(=O)(=O)c1c(Cl)cc(Cl)cc1Cl [compound 379]	3.6	–
CCc1nn(C)c(F)c1C(=O)N(C1CC1)S(=O)(=O)c1cc(C(F)(F)F)ccc1Cl [compound 384]	3.5	–
CCc1nn(C)c(F)c1C(=O)N(C1CC1)S(=O)(=O)c1ccc(Oc2ccc(Cl)cc2)cc1 [compound 391]	4.2	–
Cn1nc(C(F)(F)F)c(C(=O)N(C2CC2)S(=O)(=O)c2c(Cl)sc(Cl)c2Br)c1F [compound 436]	3.9	–
CCc1nn(C)c(F)c1C(=O)N(C1CC1)S(=O)(=O)c1csc(Cl)c1Cl [compound 438]	4	–
COc1nn(C)cc1C(=O)N(C1CC1)S(=O)(=O)c1c(Cl)cc(Cl)cc1Cl [compound 461]	2.7	–
COc1nn(C)cc1C(=O)N(C1CC1)S(=O)(=O)c1ccc(Oc2cccc(Cl)c2)cc1Br [compound 468]	3.7	–
COc1nn(C)cc1C(=O)N(C1CC1)S(=O)(=O)c1ccc(Oc2ccc(Cl)cc2Cl)cc1Br [compound 477]	4.1	–
COc1nn(C)cc1C(=O)N(C1CC1)S(=O)(=O)c1ccc(Oc2ccc(Cl)c(Cl)c2)cc1Br [compound 478]	4.2	–
COc1nn(C)cc1C(=O)N(C1CC1)S(=O)(=O)c1ccc(Oc2cc(Cl)cc(Cl)c2)cc1Br [compound 481]	4.3	–
CCOc1nn(C)cc1C(=O)N(C1CC1)S(=O)(=O)c1ccc(Oc2ccc(OC)c(OC)c2)cc1Cl [compound 527]	3.2	–
CCOc1nn(C)cc1C(=O)N(C1CC1)S(=O)(=O)c1ccc(Oc2ccc(OC)cc2)cc1Cl [compound 529]	3.5	–
CCOc1nn(C)cc1C(=O)N(C1CC1)S(=O)(=O)c1ccc(Oc2cccc(Br)c2)cc1Cl [compound 534]	3.9	–
CCOc1nn(C)cc1C(=O)N(C1CC1)S(=O)(=O)c1ccc(Oc2cccc(N(C)C)c2)c(Cl)c1 [compound 539]	4.1	–
CCOc1nn(C)cc1C(=O)N(C1CC1)S(=O)(=O)c1ccc(Oc2ccc(C)cc2)c(Cl)c1 [compound 542]	4.3	–
CCOc1nn(C)cc1C(=O)N(C1CC1)S(=O)(=O)c1ccc(Oc2ccc(Br)c(Cl)c2)cc1Cl [compound 544]	4.3	–
CCOc1nn(C)cc1C(=O)N(C1CC1)S(=O)(=O)c1ccc(Oc2cccc(Cl)c2)c(Cl)c1 [compound 546]	4.3	–
CCOc1nn(C)cc1C(=O)N(C1CC1)S(=O)(=O)c1ccc(Oc2cccc(C(F)(F)F)c2F)c(Cl)c1 [compound 547]	4.3	–
CCOc1nn(C)cc1C(=O)N(C1CC1)S(=O)(=O)c1ccc(Oc2cccc(Br)c2)c(Cl)c1 [compound 551]	4.5	–
CCOc1nn(C)cc1C(=O)N(C1CC1)S(=O)(=O)c1ccc(Oc2ccc(Cl)cc2Cl)c(Cl)c1 [compound 555]	4.7	–
CCOc1nn(C)cc1C(=O)N(C1CC1)S(=O)(=O)c1ccc(Oc2ccc(Br)c(Cl)c2)c(Cl)c1 [compound 558]	4.9	–
CCCCCc1ccc(Oc2ccc(S(=O)(=O)N(C(=O)c3cn(C)nc3OCC)C3CC3)c(Cl)c2)cc1 [compound 560]	5.6	–

Continued, values first:

chromatographic logP	LogP	SMILES
4.9	–	CCCOc1nn(C)cc1C(=O)N(C1CC1)S(=O)(=O)c1ccc(Oc2ccc(Cl)c(C(F)(F)F)c2)cc1Br [compound 302]
5.1	–	CCCOc1nn(C)cc1C(=O)N(C1CC1)S(=O)(=O)c1ccc(Oc2cc(Cl)cc(Cl)c2)cc1Br [compound 305]
3.3	–	Cn1nc(C(F)(F)F)c(C(=O)N(C2CC2)S(=O)(=O)c2cccc(Cl)c2Cl)c1F [compound 357]
4.2	–	Cn1nc(C(F)(F)F)c(C(=O)N(C2CC2)S(=O)(=O)c2ccc(Oc3ncc(C(F)(F)F)cc3Cl)cc2)c1F [compound 372]
3.9	–	CCc1nn(C)c(F)c1C(=O)N(C1CC1)S(=O)(=O)c1cc(Cl)cc(Cl)c1 [compound 376]
2.3	–	CCc1nn(C)c(F)c1C(=O)N(C1CC1)S(=O)(=O)c1c(C)nn(C)c1Cl [compound 382]
3.4	–	CCc1nn(C)c(F)c1C(=O)N(C1CC1)S(=O)(=O)c1ccc(Br)cc1Cl [compound 385]
3.8	–	CCc1nn(C)c(F)c1C(=O)N(C1CC1)S(=O)(=O)c1c(Cl)cc(C(F)(F)F)cc1Cl [compound 387]
3	–	COc1nn(C)cc1C(=O)N(C1CC1)S(=O)(=O)c1c(Cl)cc(C(F)(F)F)cc1Cl [compound 396]
3.8	–	CCc1nn(C)c(F)c1C(=O)N(C1CC1)S(=O)(=O)c1c(Cl)sc(Cl)c1Br [compound 437]
3.1	–	COc1nn(C)cc1C(=O)N(C1CC1)S(=O)(=O)c1csc(Cl)c1Cl [compound 440]
2.6	–	Cc1nn(C)c(Cl)c1S(=O)(=O)N(C(=O)c1c(C(F)(F)F)nn(C)c1F)C1CC1 [compound 443]
1.7	–	COc1nn(C)cc1C(=O)N(C1CC1)S(=O)(=O)c1c(C)nn(C)c1Cl [compound 444]
3.5	–	CCc1nn(C)c(F)c1C(=O)N(C1CC1)S(=O)(=O)c1cnc(Cl)c(Br)c1 [compound 448]
2	–	COc1nn(C)cc1C(=O)N(C1CC1)S(=O)(=O)c1cnc(Cl)c(Br)c1 [compound 449]
4.2	–	COc1nn(C)cc1C(=O)N(C1CC1)S(=O)(=O)c1ccc(Oc2ccc(Br)c(Cl)c2)cc1Br [compound 480]
2.2	–	CCOc1nn(C)cc1C(=O)N(C1CC1)S(=O)(=O)c1ccc(Oc2ccc(C)nc2)cc1Cl [compound 525]
3.5	–	CCOc1nn(C)cc1C(=O)N(C1CC1)S(=O)(=O)c1ccc(Oc2ccc(OC)c(OC)c2)c(Cl)c1 [compound 528]
3.6	–	CCOc1nn(C)cc1C(=O)N(C1CC1)S(=O)(=O)c1ccc(Oc2ccccc2)cc1Cl [compound 530]
3.8	–	CCOc1nn(C)cc1C(=O)N(C1CC1)S(=O)(=O)c1ccc(Oc2ccc(OC)cc2)c(Cl)c1 [compound 531]

chromatographic logP	LogP	SMILES
3.8	–	CCOc1nn(C)cc1C(=O)N(C1CC1)S(=O)(=O)c1ccc(Oc2cccc(N(C)C)c2)cc1Cl [compound 532]
3.9	–	CCOc1nn(C)cc1C(=O)N(C1CC1)S(=O)(=O)c1ccc(Oc2ccccc2)c(Cl)c1 [compound 533]
4	–	CCOc1nn(C)cc1C(=O)N(C1CC1)S(=O)(=O)c1ccc(Oc2ccc(Cl)cc2)cc1Cl [compound 535]
4	–	CCOc1nn(C)cc1C(=O)N(C1CC1)S(=O)(=O)c1ccc(Oc2ccc(F)c(Cl)c2)cc1Cl [compound 536]
4.1	–	CCOc1nn(C)cc1C(=O)N(C1CC1)S(=O)(=O)c1ccc(Oc2ccccc2Cl)c(Cl)c1 [compound 537]
4.1	–	CCOc1nn(C)cc1C(=O)N(C1CC1)S(=O)(=O)c1ccc(Oc2ccc(C(F)(F)F)cc2)cc1Cl [compound 538]
4.3	–	CCOc1nn(C)cc1C(=O)N(C1CC1)S(=O)(=O)c1ccc(Oc2ccc(Cl)cc2Cl)cc1Cl [compound 543]
4.3	–	CCOc1nn(C)cc1C(=O)N(C1CC1)S(=O)(=O)c1ccc(Oc2ccc(Cl)cc2)c(Cl)c1 [compound 545]
4.4	–	CCOc1nn(C)cc1C(=O)N(C1CC1)S(=O)(=O)c1ccc(Oc2ccc(F)c(Cl)c2)c(Cl)c1 [compound 548]
4.4	–	CCOc1nn(C)cc1C(=O)N(C1CC1)S(=O)(=O)c1ccc(Oc2cccc(C(F)(F)F)c2)c(Cl)c1 [compound 549]
4.4	–	CCOc1nn(C)cc1C(=O)N(C1CC1)S(=O)(=O)c1ccc(Oc2ccc(C(F)(F)F)cc2)c(Cl)c1 [compound 550]
4.5	–	CCOc1nn(C)cc1C(=O)N(C1CC1)S(=O)(=O)c1ccc(Oc2ccc(Br)cc2)c(Cl)c1 [compound 552]
4.5	–	CCOc1nn(C)cc1C(=O)N(C1CC1)S(=O)(=O)c1ccc(Oc2cccc(OC(F)(F)F)c2)c(Cl)c1 [compound 554]
4.8	–	CCOc1nn(C)cc1C(=O)N(C1CC1)S(=O)(=O)c1ccc(Oc2ccc(Cl)c(C(F)(F)F)c2)c(Cl)c1 [compound 556]
5	–	CCOc1nn(C)cc1C(=O)N(C1CC1)S(=O)(=O)c1ccc(Oc2cc(Cl)cc(Cl)c2)c(Cl)c1 [compound 559]
–	5,8	CCCCCc1ccc(Oc2ccc(S(=O)(=O)N(C(=O)c3cn(C)nc3OCC)C3CC3)c(Br)c2)cc1 [compound 561]
3.7	–	Cc1nn(C)c(C(=O)N(C2CC2)S(=O)(=O)c2cccc(Cl)c2Cl)c1Cl [compound 586]
3	–	Cc1nocc1C(=O)N(C1CC1)S(=O)(=O)c1cccc(Cl)c1Cl [compound 599]
3.6	–	Cc1nocc1C(=O)N(C1CC1)S(=O)(=O)c1ccc(Cl)c(Cl)c1Cl [compound 600]
2.2	–	Cc1oncc1C(=O)N(C1CC1)S(=O)(=O)c1cccc(Cl)c1Cl [compound 603]
